Experimental data taken from patent US11274295B2, “Methods for generating pools of variants of a DNA template” (priority 2012, dated 2022).

What was measured:
Assay type in all cases: cell-based
[1] = tested on: E. coli expressing WT APH(3′)II; assay: MIC of aminoglycosides in E. coli expressing WT APH(3′)II, immediately following transformation; details: Stellar cells transformed with WT pBR322-EM7-neo, LB with carbenicillin 50 μg/mL, 24 hrs, MIC = lowest dilution with A600 < 0.025; for MIC: Escherichia coli, read-out: estimated 1:1 WT MIC
Description: (§1) To determine the minimum inhibitory concentration (MIC) of each of the six aminoglycosides: kanamycin, ribostamycin, G418, amikacin, neomycin, paromomycin (Sigma-Aldrich, St. Louis, Mo.) in E. coli expressing WT APH(3′)II, Stellar cells were transformed with pBR322-EM7-neo, recovered in SOC medium (New England Biolabs (NEB), Ipswich, Mass.) at 37° C. for 1 hr, diluted 1:100 with LB and then divided into 96-well growth blocks containing LB with carbenicillin (50 μg/mL) and 2-fold serial dilutions of aminoglycosides. After growth at 37° C. with shaking for 24 hrs, the culture densities were assessed by absorbance at 600 nm (A600) using a NanoDrop 8000 (Thermo Scientific, Billerica, Mass.).
(§2) The cultures were incubated in 50 mL tubes at 37° C. with shaking for 24 hours, pelleted by centrifugation and frozen at −20° C. Plasmids were isolated from the pellets using QIAprep Spin Miniprep kits (Qiagen). Each transformation and selection was performed in duplicate, using each of the two independently generated mutant libraries.

[2] = tested on: E. coli transformed with APH(3′)II substitution libraries; assay: Mutational scanning selection of APH(3′)II substitution libraries in E. coli
Text: To perform mutational scanning in vivo, we cultured E. coli transformed with APH(3′)II substitution libraries in liquid media supplemented with decreasing concentrations of one of six aminoglycoside antibiotics with diverse structures and a wide range of potencies: kanamycin, ribostamycin, G418, amikacin, neomycin or paromomycin (FIG. 3). To normalize the selective pressures induced by the different antibiotics, we first established their minimum inhibitory concentrations (MICs) for E. coli transformed with “wild-type” (WT) APH(3′)II and then used 1:1, 1:2, 1:4 and 1:8 dilutions of WT MICs for the respective library selections. We note that, with the exception of G418 and amikacin, even the 1:8 dilutions were sufficient to inhibit growth of untransformed E. coli. After overnight selection, plasmids were isolated from the surviving cells and their coding regions were shotgun sequenced to compare the amino acid composition of the selected libraries to that of the original input libraries (median coverage=51,400×).
as §2

untransformed e. coli = assay: Growth inhibition of untransformed E. coli by aminoglycoside; details: Table 2 experiment
[3] = tested on: E. coli transformed with APH(3′)II variants (pBR322[EM7-K1] through pBR322[EM7-K44]); assay: MIC of aminoglycosides in E. coli carrying synthetic APH(3′)II variants, 2-fold dilution series, A600; details: E. coli expressing the APH(3′)II variant, 2-3 independent cultures
Description: as §1
To establish the substrate specificity of the synthetic APH(3′)II variants relative to WT APH(3′)II, glycerol stocks of the relevant clones (pBR322[EM7-K1] through pBR322[EM7-K44]) were streaked onto LB agar plates and cultured overnight at 37° C. Single colonies were then inoculated into 1 mL LB with 50 μg carbenicillin, incubated at 37° C. with shaking for 6 hours, diluted 1:100 into LB media, and then split into 96-well deep well plates containing LB with carbenicillin (50 μg/mL) and 2-fold serial dilutions of aminoglycosides dilution series. We note that the longer recovery in these follow-up experiments increased the absolute MICs compared to those we measured immediately following transformation).

NC[C@@H]1O[C@H](O[C@H]2[C@@H](O)[C@H](O[C@@H]3[C@@H](O)[C@H](N)C[C@H](N)[C@H]3O[C@H]3O[C@H](CO)[C@@H](O)[C@H](O)[C@H]3N)O[C@@H]2CO)[C@H](N)[C@@H](O)[C@@H]1O [paromomycin]
MIC [1]: 320 µg/mL

NCC[C@H](O)C(=O)N[C@@H]1C[C@H](N)[C@@H](O[C@H]2O[C@H](CN)[C@@H](O)[C@H](O)[C@H]2O)[C@H](O)[C@H]1O[C@H]1O[C@H](CO)[C@@H](O)[C@H](N)[C@H]1O [amikacin]
selection pressure ([2]; at its 1:4 and 1:8 WT MICs): did not provide an effective selection pressure | MIC [1]: 10 µg/mL | lowest concentration that reliably inhibited growth of untransformed e. coli (untransformed e. coli): (*) 12.5 ug/mL was the lowest amikacin concentration that reliably inhibited growth of untransformed e. coli in this experiment. These estimated MICs therefore reflect total or near total loss of activity on both susbtrates.

NC[C@H]1O[C@H](O[C@H]2[C@H](O)[C@@H](O[C@H]3O[C@H](CO)[C@@H](O)[C@H](N)[C@H]3O)[C@H](N)C[C@@H]2N)[C@H](O)[C@@H](O)[C@@H]1O [kanamycin]
MIC [1]: 225 µg/mL

neomycin
estimated 1:1 WT MIC [1]: 40 µg/mL

NC[C@H]1O[C@H](O[C@H]2[C@H](O[C@@H]3O[C@H](CO)[C@@H](O)[C@H]3O)[C@@H](O)[C@H](N)C[C@@H]2N)[C@H](N)[C@@H](O)[C@@H]1O [ribostamycin]
MIC [1]: 2500 µg/mL

CN[C@@H]1[C@@H](O)[C@@H](O[C@@H]2[C@@H](O)[C@H](O[C@H]3O[C@H]([C@@H](C)O)[C@@H](O)[C@H](O)[C@H]3N)[C@@H](N)C[C@H]2N)OC[C@]1(C)O [G418]
selection pressure ([2]; at its 1:8 WT MIC): did not provide an effective selection pressure | estimated 1:1 WT MIC [1]: 5 µg/mL

B1: KKA2_KLEPN_opt_K1: Wild-type aminoglycoside-3′-phosphotransferase-II (APH(3′)II) (protein, UniProt P00552 1-264, looked up)
Aminoglycoside …: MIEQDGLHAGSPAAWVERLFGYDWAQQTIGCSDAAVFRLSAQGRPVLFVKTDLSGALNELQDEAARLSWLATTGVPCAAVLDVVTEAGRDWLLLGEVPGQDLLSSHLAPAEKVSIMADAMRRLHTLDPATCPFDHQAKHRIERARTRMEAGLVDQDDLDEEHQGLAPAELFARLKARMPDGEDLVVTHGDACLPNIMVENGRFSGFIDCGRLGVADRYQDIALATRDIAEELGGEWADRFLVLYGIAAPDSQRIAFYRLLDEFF
modifications: codon-optimized
MIC of G418 [3]: 50.00 µg/mL | MIC of amikacin [3]: 25.00 µg/mL | MIC of kanamycin [3]: 2000.00 µg/mL | MIC of neomycin [3]: 400.00 µg/mL | MIC of paromomycin [3]: 4000.00 µg/mL | MIC of ribostamycin [3]: 15000.00 µg/mL
